Results as given in paper PMC5889877, “Ex Vivo Cardiotoxicity of Antineoplastic Casiopeinas Is Mediated through Energetic Dysfunction and Triggered Mitochondrial-Dependent Apoptosis” (Oxidative Medicine and Cellular Longevity, 2018).

Test system: H9c2 cells
Experiment: Mitochondrial anion superoxide production, MitoSOX flow cytometry
Assay type: cell-based
Conditions: H9c2, acute; Antimycin A 10 μg/mL, Doxo 5 μM
Protocol: Thiol groups in the adenine nucleotide translocase were measured by eosin 5-maleimide interaction (EMA) with cysteine residues susceptible to oxidative stress or oxidizing agents [21] and followed by SDS/PAGE electrophoresis. […] Experiments for anion superoxide production were performed in intact cardiomyoblasts using the fluorescent probe MitoSOX (Molecular Probes) in the flow cytometer. H9c2 cells were loaded with MitoSOX during 15 min at 37°C with a cell density of 100,000 cells/mL (final concentration of MitoSOX 5 μM). Afterwards, the cells were subjected to Cas III-Ea treatment (4 or 20 μM); DOXO (5 μM) and Antimycin A (10 μg/mL) were used as positive controls. Finally, the cells were washed and analyzed on a FACSCanto II (BD Biosciences). FACS data was analyzed using FlowJo version 10.0 (Tree Star).

For `CCCCCC[C@H]1C(=O)O[C@H](C)[C@H](NC(=O)c2cccc(NC=O)c2O)C(=O)O[C@@H](C)[C@@H]1OC(=O)CC(C)C` [Antimycin A], the “increase in MitoSOX mean intensity (anion superoxide production)” value was 9 fold.
